Data as given in article PMC4449373 (Clinical Pharmacokinetics, 2015).
Like-named read-outs stand apart in the source and are kept apart here.

Key:
[1] = adult subjects with T2D, cited from earlier work
[2] = Population pharmacokinetic analysis; assay type: in vivo, human

Which “Mean decrease in glycated hemoglobin [HbA1c]” value ([1]; liraglutide 1.2 mg and 1.8 mg alone or in combination with other oral antidiabetic drugs and/or insulin) does the source give for `CCCCCCCCCCCCCCCC(=O)N[C@@H](CCC(=O)NCCCC[C@H](NC(=O)[C@H](C)NC(=O)[C@H](C)NC(=O)[C@H](CCC(N)=O)NC(=O)CNC(=O)[C@H](CCC(=O)O)NC(=O)[C@H](CC(C)C)NC(=O)[C@H](Cc1ccc(O)cc1)NC(=O)[C@H](CO)NC(=O)[C@H](CO)NC(=O)[C@@H](NC(=O)[C@H](CC(=O)O)NC(=O)[C@H](CO)NC(=O)[C@@H](NC(=O)[C@H](Cc1ccccc1)NC(=O)[C@@H](NC(=O)CNC(=O)[C@H](CCC(=O)O)NC(=O)[C@H](C)NC(=O)[C@@H](N)Cc1cnc[nH]1)[C@@H](C)O)[C@@H](C)O)C(C)C)C(=O)N[C@@H](CCC(=O)O)C(=O)N[C@@H](Cc1ccccc1)C(=O)N[C@H](C(=O)N[C@@H](C)C(=O)N[C@@H](Cc1c[nH]c2ccccc12)C(=O)N[C@@H](CC(C)C)C(=O)N[C@H](C(=O)N[C@@H](CCCNC(=N)N)C(=O)NCC(=O)N[C@@H](CCCNC(=N)N)C(=O)NCC(=O)O)C(C)C)[C@@H](C)CC)C(=O)O` [liraglutide] here?
The value was “up to −1.5%”.

What about the “Safety and tolerability profile” value ([1]; liraglutide 1.2 mg and 1.8 mg) of the same compound?
The value was “acceptable safety and tolerability profile”.

What about the Mean weight loss ([1]; liraglutide 1.2 mg) of the same compound?
The Mean weight loss was ≤ -2.9 kg.

What about the Mean weight loss ([1]; liraglutide 1.8 mg) of the same compound?
The Mean weight loss was “up to −3.4 kg”.

And the “Decrease in AUC24, pediatric age group” value ([2]; compared with an adult subject of the same weight and gender)?
The value was 10%.

What about the “Geometric mean AUC24 lower at highest observed body weight (216 kg)” value ([2]; compared with exposure at reference body weight of 90 kg) of the same compound?
The value was 56%.

What about the “Lower drug exposure (AUC24) for males” value ([2]; compared with the reference female subject of the same body weight) of the same compound?
The value was 31%.
